From patent publication US20230101768A1, “METHOD TO TREAT MANGANESE TOXICITY AND MANGANESE-INDUCED PA[…] HUMANS” (priority 2021, published 2023)
Where two headings read alike, the source gives them in different places.

Key:
[1] = tested on: VEGF; format: cell-based, human; conditions: HepG2 cells, 250 μM manganese for 4 h; expression without manganese normalized to 1; mean±SE, N=4
Description: (§1) Cells were treated with 0 or 250 μM manganese for 4 h, and gene expression was analyzed by qRT-PCR. For each transcript, expression without manganese treatment was normalized to 1. N=4. Data are mean±SE.
(§2) Cell culture. HepG2 cells were grown in Eagle's modified essential medium (MEM; Corning) with 10% fetal bovine serum (Atlanta Biologicals), 100 IU/ml penicillin (Corning), and 100 μg/ml streptomycin (Corning). 293T cells were maintained in Dulbecco's modified essential medium/F12 (Thermo) supplemented with 10% fetal bovine serum, penicillin (100 IU/ml), and streptomycin (100 μg/ml). Human primary hepatocytes were purchased from XenoTech (catalog #HPCH10+) and cultured according to protocols provided by the supplier.
(§3) manganese and drug treatments in cell culture. Cells were treated with indicated levels of manganese as manganeseCl2.4H2O (Fisher). Vehicle for manganese treatment was water. Prolyl hydroxylase inhibitors roxadustat (Caymen), vadadustat, and molidustat (both APE-Bio); the HIFα inhibitor LW6 (Selleckchem); the proteasomal inhibitor MG132 (Sigma); and the transcription inhibitor actinomycin D (Sigma) were dissolved in DMSO. […] Vehicle treatment for all drugs was DMSO.
(§4) Quantitative RT-PCR assays. RNA extraction from HepG2 cells and mouse tissue, reverse transcription to cDNA, and qRT-PCR analyses were performed as described by us previously (47, 50). For analyses of mouse brain samples, a part of the midbrain, including the basal ganglia, was used. Transcript levels were quantified using the ΔΔCT method with 18S (in mice) or TBP (in HepG2 cells) as the internal control, also as described by us previously (47, 50).

[2] = tested on: SLC30A10; format: cell-based, human; conditions: HepG2 cells
Description: as §1, §2, §3, §4

[3] = tested on: SLC39A8; conditions: HepG2 cells, 250 μM manganese for 4 h; expression without manganese normalized to 1; mean±SE, N=4
Description: as §1, §2, §3, §4

[4] = tested on: DMT1; conditions: HepG2 cells, 250 μM manganese for 4 h; expression without manganese normalized to 1; mean±SE, N=4
Description: as §1, §2, §3, §4

[5] = tested on: SPCA1; conditions: HepG2 cells, 250 μM manganese for 4 h; expression without manganese normalized to 1; mean±SE, N=4
Description: as §1, §2, §3, §4

[6] = tested on: HIF1α; format: cell-based, human
From the text: (§5) qRT-PCR analyses in HepG2 cells stably infected with scramble shRNAs or shRNAs targeting HIF1α, HIF2α, HIF1β/ARNT or HIF1α+HIF2α. Expression in respective scramble shRNA control cells was normalized to 1. Scramble shRNA sequence 1 was used for the HIF1α shRNA assay (single knockdown). Scramble shRNA sequence 2 was used for the other experiments, including HIF1α+HIF2α double knockdown. N=3-4. Except HIF1β/ARNT shRNAs, p<0.05 by t-test in comparison with respective scramble shRNA. […] N.S.—not significant.
(§6) ShRNA sequences targeting HIF1α, HIF2α, or HIF1β/ARNT (Table 3) were obtained from the MISSION® TRC shRNA library (Sigma) or were previously described (103). Scramble shRNA sequence 1 was from the MISSION® TRC shRNA library while scramble shRNA sequence 2 (Table 3) has been previously reported (104). These sequences were sub-cloned into the lentivirus transfer plasmid pLKO.1 vector (Addgene #8453).
(§7) Lentiviral infections. Stable cells were generated by lentivirus infection essentially as described by us previously (49, 98). Briefly, lentivirus was produced in HEK293T cells by co-transfecting transfer plasmids described above with plasmids coding for a third generation packing system that is routinely used (pRSV-Rev, pRRE, and pCMV-VSVG) (49, 98). Viral supernatants were collected 40-48 h post-transfection. […]
(§8) Quantitative RT-PCR assays.

[7] = tested on: HIF2α; format: cell-based, human
From the text: as §5, §6, §7, §8

[8] = tested on: SLC30A10; format: in vivo, mice; conditions: oral manganese ~15 mg/kg daily from birth until 8 weeks
Description: A well-characterized drinking water-based manganese exposure regimen was used to model human environmental manganese exposure by providing mice with ˜50 mg manganeseCl2.4H2O/kg body weight daily (˜15 mg absolute manganese/kg per day) from birth until 8 weeks of age. This, and related similar, dosing regimens: 1) approximate the increase in manganese exposure in humans consuming well water contaminated with 1.5 mg manganese/L, which is the median well water concentration associated with neurological deficits in children; 2) increase brain manganese levels by ˜2-3 fold, similar to human patients; 3) produce measurable neurobehavioral deficits without overt toxicity; and 4) model exposure to manganese in developmentally-sensitive early-life and adolescent periods (11). Pre-weaning manganese was delivered by pipette directly into the mouth, and post-weaning manganese was delivered in drinking water using procedures described in detail in ref. (11). In brief, pre-weaning dosing was adjusted to each animal's body weight. For this, a stock solution of 69.2 mg absolute manganese/ml prepared in milliQ water was diluted in milliQ water containing 2.5% (wt/vol) of the natural sweetener Stevia (to facilitate intake by pups), and the required manganese amount (0.2 μl manganese stock/g body weight) was delivered in a dose of ˜5-10 μl/animal. For post-weaning exposure, a 27.7 mg absolute manganese/ml stock solution was prepared in water and diluted to 0.069 mg absolute manganese/ml in drinking water, which provided mice with ˜15 mg absolute manganese/kg per day based on a daily water intake of ˜2-5 ml/mouse depending on age.
To assay for the protective effect of roxadustat, animals were exposed to roxadustat or vehicle with or without manganese in drinking water from ˜4 weeks of age. Treatment lasted for 4 weeks from initiation. Roxadustat (Selleckchem) was prepared as a 50 mg/ml stock solution in DMSO, then diluted to 1 mg/ml in sterile phosphate buffered saline (PBS), and delivered by daily i.p. injection at 10 mg/kg. Vehicle was 2% DMSO in PBS. For this experiment, drinking water manganese levels were adjusted to 0.138 mg absolute manganese/ml so that animals received ˜30 mg absolute manganese/kg daily. A higher level of manganese was used because exposure was initiated after weaning, which was necessary because daily i.p. injections for roxadustat delivery were not possible in the pre-weaning period.
Animals were euthanized using carbon dioxide and tissue dissected for qRT-PCR or ICPMS analyses as described by us previously (50).
as §4

SMILES: O.O.O.O.[Cl][Mn][Cl] [manganese, manganeseCl2.4H2O]
- Relative expression after manganese, VEGF transcript [1]: 2.41 ± 0.29
- Relative expression after manganese, SLC30A10 transcript ([2]; 250 μM manganese for 4 h, expression without manganese normalized to 1, mean±SE, N=4): 2.40 ± 0.28
- Time at which SLC30A10 levels returned to baseline ([2]; 250 μM manganese, time course): ≤ 24 h
- Time to statistically significant increase of SLC30A10 ([2]; 250 μM manganese, time course): ≤ 2 h
- Lowest manganese level at which SLC30A10 levels were elevated ([2]; dose response, 4 h): 62.5 µM
- Relative expression after manganese, SLC39A8 transcript [3]: 0.87 ± 0.09
- Relative expression after manganese, DMT1 transcript [4]: 0.92 ± 0.03
- Relative expression after manganese, SPCA1 transcript [5]: 1.00 ± 0.05
- HIF1α mRNA levels after manganese [6]: not elevated
- HIF2α mRNA levels after manganese [7]: not elevated
- SLC30A10 levels in intestines ([8]; 129S4/SvJaeJ mice): not
- SLC30A10 levels in liver ([8]; 129S4/SvJaeJ mice): increased
- SLC30A10 levels in intestines ([8]; C57BL/6J mice): increase
- SLC30A10 levels in liver ([8]; C57BL/6J mice): not
- Expression of SLC30A10 in the brain ([8]; either strain (129S4/SvJaeJ, C57BL/6J)): did not impact
